We go through eight molecules from paper PMC12133982, “Predominant T-cell epitopes of SARS-CoV-2 restricted by multiple prevalent HLA-B and HLA-C allotypes in Northeast Asia” (Frontiers in Immunology, 2025).

Usually inhibition stands for the change of the read-out against control, counted positive when it falls.

SMILES strings stand for the structures. Peptide text beside a SMILES is read from it.

Experiment [1] deals with HLA-B1501 (Homo sapiens, UniProt P01889, A329T/A93T/A95T/C349S/D201E/D98Y/E187L/E204Q/E69M/E70A/K202T/N87E/Q94N/R155S/R180W/S121R/S35A/S48A/V306I/V36M/Y140S/Y91S). The experiment in a line: Competitive peptide binding assay, CIR-B1501. The note with it: HMy2.CIR-B1501 cells, reference Cy5-[…], class from inhibition at 5 and 15 μM, flow cytometry MFI; read-out: Binding affinity with HLA-B1501. Here is the method: (§1) Then, competitive peptide binding assays were performed.
(In general: In flow cytometry, cells or beads pass a laser one at a time.)

Experiment [2] has as its target HLA-B4001 (Homo sapiens, UniProt P01889, A65T/A93T/A95T/D138N/D98Y/E176V/E69K/N87E/Q56L/Q94N/R180L/S121R/S35A/S48T/T167S/V36M/W171L/Y33H/Y91S). The experiment in a line: Competitive peptide binding assay, CIR-B4001. The note with it: HMy2.CIR-B4001 cells, reference Cy5-[…], class from inhibition at 5 and 15 μM, flow cytometry MFI; read-out: Binding affinity with HLA-B4001. Here is the method:
as §1

In experiment [3] the target is HLA-B5801 (Homo sapiens, UniProt P01889, A329T/C349S/D201E/D98Y/E176V/E187L/E204Q/E69T/G107R/I218V/I90N/K202T/L105A/L119I/N104I/N87E/Q89R/Q94S/R106L/R155S/R180L/R86G/S101N/S121R/S35A/S48A/T118I/V127L/V306I/V36M/Y140S/Y91M). The experiment in a line: Competitive peptide binding assay, CIR-B5801. The note with it: HMy2.CIR-B5801 cells, reference Cy5-[…], class from inhibition at 5 and 15 μM, flow cytometry MFI; read-out: Binding affinity with HLA-B5801. Here is the method: as §1

The target of experiment [4] is HLA-B3501 (Homo sapiens, UniProt P01889, A329T/A93T/A95T/C349S/D201E/D98Y/E176V/E187L/E204Q/E69T/I218V/K202T/L119I/Q94N/R155S/R180L/S121R/S35A/S48A/T118I/V127L/V306I/V36M/Y140S/Y91F). The experiment in a line: Competitive peptide binding assay, CIR-B3501. The note with it: HMy2.CIR-B3501 cells, reference Cy5-[…], class from inhibition at 5 and 15 μM, flow cytometry MFI; read-out: Binding affinity with HLA-B3501. Here is the method:
as §1

Experiment [5] concerns the target HLA-B1302 (Homo sapiens, UniProt P01889, A65T/A93T/A95T/D138N/D201E/D98Y/E176V/E204Q/E69M/E70A/G107R/K202T/L105A/L119W/N104T/N87E/Q94N/R106L/R155S/R169L/R180L/S101N/S121T/S35A/S48T/V127L/V36M/Y140L/Y91S). The experiment in a line: Competitive peptide binding assay, CIR-B1302. The note with it: HMy2.CIR-B1302 cells, reference Cy5-MMWYWGPSL, class from inhibition at 5 and 15 μM, flow cytometry MFI; read-out: Binding affinity with HLA-B1302. Here is the method:
as §1

The target of experiment [6] is HLA-B5101 (Homo sapiens, UniProt P01889, A329T/A93T/A95T/C349S/D138N/D201E/D98Y/E187L/E204Q/E69T/G107R/I218V/K202T/L105A/L119W/N104I/Q94N/R106L/R155S/R180L/S101N/S121T/S35A/S48A/V306I/V36M/Y195H/Y91F). The experiment in a line: Competitive peptide binding assay, CIR-B5101. The note with it: HMy2.CIR-B5101 cells, reference Cy5-[…], class from inhibition at 5 and 15 μM, flow cytometry MFI; read-out: Binding affinity with HLA-B5101. The procedure:
as §1

The target of experiment [7] is HLA-B1301 (Homo sapiens, UniProt P01889, A65T/A93T/A95T/D138N/D201E/D98Y/E176V/E204Q/E69M/E70A/G107R/K202T/L105A/L119I/N104T/N87E/Q94N/R106L/R155S/R169L/R180L/S101N/S121R/S35A/S48T/T118I/V127L/V36M/Y140L/Y91S). The experiment in a line: Competitive peptide binding assay, CIR-B1301. The note with it: HMy2.CIR-B1301 cells, reference Cy5-[…], class from inhibition at 5 and 15 μM, flow cytometry MFI; read-out: Binding affinity with HLA-B1301. Here is the method: as §1

The target of experiment [8] is HLA-B1502 (Homo sapiens, UniProt P01889, A329T/A93T/A95T/C349S/D201E/D98Y/E187L/E204Q/E69M/E70A/H137Y/K202T/L119I/Q94N/R155S/R180L/S121R/S35A/S48A/T118I/V306I/V36M/Y140S/Y91S). The experiment in a line: Competitive peptide binding assay, CIR-B1502. The note with it: HMy2.CIR-B1502 cells, reference Cy5-[…], class from inhibition at 5 and 15 μM, flow cytometry MFI; read-out: Binding affinity with HLA-B1502. Here is the method:
as §1

Experiment [9] deals with HLA-B4601 (Homo sapiens, UniProt P01889, A329T/A93R/C349S/D201E/E100V/E187L/E204Q/E69M/E70A/I90K/K202T/N87E/R155S/R180W/S121R/S35A/S48A/V306I/V36M/Y140S). The experiment in a line: Competitive peptide binding assay, CIR-B4601. The conditions noted are these: for IC50: HMy2.CIR-B4601 cells, reference Cy5-[…], class from inhibition at 5 and 15 μM, flow cytometry MFI, read-out: Binding affinity with HLA-B4601; for inhibition at 5 µM: read-out: Inhibition % of Cy5-reference peptide binding, CIR-B4601, 5μM peptide; for inhibition at 15 µM: read-out: Inhibition % of Cy5-reference peptide binding, CIR-B4601, 15μM peptide. The procedure: as §1

The target of experiment [10] is HLA-B4801 (Homo sapiens, UniProt P01889, A269T/A93T/A95T/D138N/D98Y/E176V/N87E/Q94N/R180L/T167S/W171L/Y91S). The experiment in a line: Competitive peptide binding assay, CIR-B4801. The note with it: HMy2.CIR-B4801 cells, reference Cy5-[…], class from inhibition at 5 and 15 μM, flow cytometry MFI; read-out: Binding affinity with HLA-B4801. The procedure: as §1
The target of experiment [11] is T1, HLA-B0702 (Homo sapiens, UniProt P01889).
T1 construct: expressed in transfected cells; host or cells: HMy2.CIR
The experiment in a line: Competitive peptide binding assay, CIR-B0702. The conditions noted are these: HMy2.CIR-B0702 cells, reference Cy5-[…], class from inhibition at 5 and 15 μM, flow cytometry MFI. The procedure: as §1

Experiment [12] concerns the target HLA-B4403 (Homo sapiens, UniProt P01889, A223V/A65T/A93T/A95T/D201E/D98Y/E176V/E187L/E204Q/E69K/G107R/H137Y/K202T/L105A/L119I/N104T/N87E/Q56L/Q94N/R106L/R155S/R180L/S101N/S121R/S35A/S48T/T118I/V36M/W191S/Y140D/Y91S). The experiment in a line: Competitive peptide binding assay, CIR-B4403. The conditions noted are these: HMy2.CIR-B4403 cells, reference Cy5-CYMEAVAL, class from inhibition at 5 and 15 μM, flow cytometry MFI; read-out: Binding affinity with HLA-B4403. The procedure:
as §1

As to `CC(C)C[C@H](NC(=O)[C@H](Cc1c[nH]cn1)NC(=O)[C@H](Cc1ccccc1)NC(=O)[C@@H](NC(=O)[C@H](CC(=O)O)NC(=O)[C@H](C)NC(=O)[C@H](Cc1ccc(O)cc1)NC(=O)[C@H](CCC(=O)O)NC(=O)[C@@H](N)CCC(N)=O)C(C)C)C(=O)O` [Epitope Y71] (H-QEYADVFHL-OH; N-terminus and C-terminus assumed), the IC50 in experiment [1] was 5 to 15 µM; in [2], 5 to 15 µM; in experiment [3] it was over 15 µM; in experiment [4], 5 to 15 µM; in experiment [5], over 15 µM; in experiment [6] it was over 15 µM.

For the molecule `CC[C@H](C)[C@H](NC(=O)[C@H](C)NC(=O)CNC(=O)[C@@H](NC(=O)[C@H](Cc1ccc(O)cc1)NC(=O)[C@@H](NC(=O)[C@@H](N)CC(C)C)[C@@H](C)O)[C@@H](C)O)C(=O)N[C@@H](CCCCN)C(=O)N[C@@H](CC(C)C)C(=O)O` [Epitope Y243] (H-LTYTGAIKL-OH; N-terminus and C-terminus assumed), the IC50 in [7] is over 15 µM; in experiment [1] it was over 15 µM; in [8], over 15 µM; in experiment [9], under 5 µM; in experiment [4], over 15 µM; in [10], over 15 µM. In addition, the inhibition at 5 µM in [9] was 77.3%. In addition, the inhibition at 15 µM in experiment [9] worked out at 94%.

As for `CSCC[C@H](NC(=O)[C@H](CCCCN)NC(=O)CN)C(=O)N[C@@H](CCCCN)C(=O)N[C@@H](CC(=O)O)C(=O)N[C@@H](CC(C)C)C(=O)N[C@@H](CO)C(=O)N1CCC[C@H]1C(=O)N[C@@H](CCCNC(=N)N)C(=O)N[C@@H](Cc1c[nH]c2ccccc12)C(=O)O` [Epitope Y224] (H-GKMKDLSPRW-OH; N-terminus and C-terminus assumed), the IC50 in experiment [7] was over 15 µM; in experiment [1] it was over 15 µM; in experiment [9] it was over 15 µM; in [4], over 15 µM; in experiment [10] it was 5 to 15 µM. Moreover, the inhibition at 5 µM in experiment [9] was 32.3%. Further, in experiment [9], the inhibition at 15 µM is 52.3%.

With `CSCC[C@H](NC(=O)[C@H](CCSC)NC(=O)[C@H](CO)NC(=O)[C@H](Cc1ccccc1)NC(=O)[C@H](Cc1c[nH]cn1)NC(=O)[C@H](CCCCN)NC(=O)[C@H](CCCNC(=N)N)NC(=O)[C@H](CC(C)C)NC(=O)[C@@H](N)Cc1ccc(O)cc1)C(=O)O` [Epitope Y28] (H-YLRKHFSMM-OH; N-terminus and C-terminus assumed), the IC50 is over 15 µM in [7]; under 5 µM in experiment [1]; over 15 µM in experiment [8]; over 15 µM in experiment [3]; under 5 µM in experiment [9]; 5 to 15 µM in experiment [4]. Also, the IC50 in experiment [6] is over 15 µM. The inhibition at 5 µM in experiment [9] came to 85.7%. In experiment [9], the inhibition at 15 µM worked out at 91.8%.

As to `CC[C@H](C)[C@H](NC(=O)[C@@H]1CCCN1C(=O)[C@@H]1CCCN1C(=O)[C@@H](NC(=O)[C@H](CCCCN)NC(=O)[C@H](Cc1ccc(O)cc1)NC(=O)[C@@H](NC(=O)[C@H](CCC(N)=O)NC(=O)[C@@H](N)CCCCN)[C@@H](C)CC)[C@@H](C)O)C(=O)O` [Epitope Y82] (H-KQIYKTPPI-OH; N-terminus and C-terminus assumed), the IC50 in [1] is over 15 µM; in experiment [8], over 15 µM; in experiment [3], 5 to 15 µM; in experiment [4], under 5 µM; in [6] it was over 15 µM.

As for `CC[C@H](C)[C@H](NC(=O)[C@H](CC(=O)O)NC(=O)[C@H](CCCNC(=N)N)NC(=O)CNC(=O)[C@H](Cc1ccccc1)NC(=O)[C@H](CCC(N)=O)NC(=O)[C@H](CCC(N)=O)NC(=O)[C@H](Cc1ccccc1)NC(=O)[C@@H]1CCCN1C(=O)[C@@H](N)CC(C)C)C(=O)O` [Epitope Y282] (H-LPFQQFGRDI-OH; N-terminus and C-terminus assumed), the IC50 was over 15 µM in experiment [7], 5 to 15 µM in experiment [1], over 15 µM in experiment [8] and over 15 µM in experiment [10].

On to `CC[C@H](C)[C@H](NC(=O)[C@H](CC(N)=O)NC(=O)[C@H](CCCCN)NC(=O)[C@H](Cc1ccccc1)NC(=O)[C@@H](NC(=O)[C@@H](N)Cc1ccccc1)C(C)C)C(=O)N[C@@H](CC(=O)O)C(=O)NCC(=O)N[C@@H](Cc1ccc(O)cc1)C(=O)O` [Epitope Y172] (H-FVFKNIDGY-OH; N-terminus and C-terminus assumed), for which the IC50 was over 15 µM in experiment [7]; under 5 µM in experiment [1]; 5 to 15 µM in [8]; over 15 µM in experiment [2]; under 5 µM in experiment [3]; over 15 µM in experiment [9]. The IC50 in experiment [4] was 5 to 15 µM; in [11], over 15 µM; in experiment [5], over 15 µM; in [12], over 15 µM; in experiment [6] it was over 15 µM.

With `CC[C@H](C)[C@H](NC(=O)[C@@H](NC(=O)[C@H](CC(N)=O)NC(=O)[C@H](CCCNC(=N)N)NC(=O)[C@H](CCCCN)NC(=O)[C@@H](NC(=O)[C@H](Cc1ccc(O)cc1)NC(=O)[C@H](C)NC(=O)[C@@H](N)Cc1ccccc1)[C@@H](C)O)C(C)C)C(=O)O` [Epitope Y276] (H-FAYTKRNVI-OH; N-terminus and C-terminus assumed), the IC50 in experiment [7] is under 5 µM; in experiment [1], over 15 µM; in experiment [8], over 15 µM; in experiment [4], over 15 µM; in experiment [6], 5 to 15 µM.
